Assays:
Assay type in all cases: in vivo
[1] = tested on: common ragweed (Ambrosia artemisiifolia L., AMBEL); experiment: Post-emerge greenhouse herbicide test, phytotoxicity rating; details: 14 days after application
In short: (§1)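 Compounds in acetone with 0.25% v/v non-ionic surfactant were track-sprayed at 187 l/ha over plants at the 2-3 leaf stage, at 63 to 1000 g ai/ha. Pots were bottom-watered. Injury was scored visually 14 days later on a 0-100 scale, where 0 is no damage and 100 is complete plant death.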

[2] = tested on: green foxtail (Setaria viridis, SETVI); experiment: as above; details: 14 days after application
In short: as §1

[3] = tested on: barnyardgrass (Echinochloa crusgalli, ECHCG); experiment: as above; details: 14 days after application
In short: as §1

[4] = tested on: velvetleaf (Abutilon theophrasti, ABUTH); experiment: as above; details: 14 days after application
In short: as §1

[5] = tested on: ivyleaf morningglory (Ipomoea hederacea, IPOHE); experiment: as above; details: 14 days after application
In short: as §1

[6] = tested on: Johnsongrass (Sorghum halepense, SORHA); experiment: as above; details: 14 days after application
In short: as §1

[7] = tested on: redroot pigweed (Amaranthus retroflexus, AMARE); experiment: as above; details: 14 days after application
In short: as §1

[8] = tested on: lambsquarters (Chenopodium album, CHEAL); experiment: as above; details: 14 days after application
In short: as §1

[9] = tested on: large crabgrass (Digitaria sanguinalis, DIGSA); experiment: as above; details: 14 days after application
In short: as §1

[10] = tested on: upland rice (Oryza sp., var.Tebonnet, RICE); experiment: Post-emerge greenhouse test, crop damage rating; details: 14 days after application
In short: as §1

[11] = tested on: field corn (Zea mays L., var. Dekalb 535, CORN); experiment: Post-emerge greenhouse test, crop damage rating; details: 14 days after application
In short: as §1

[12] = tested on: soybean (Glycine max L., var. Pella 86, SOY); experiment: Pre-emerge greenhouse test, crop damage rating; details: 14 days after application, rating scale 0-100
In short: (§2)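 Seeds sown in sandy loam mix one day before track-sprayer application of compounds in acetone at 125–1000 g ai/ha (187 l/ha), then surface-watered to incorporate and bottom-watered. Visual rating 14 days after application on a 0–100 scale (0 = no damage, 100 = all plants dead).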

[13] = tested on: upland rice (Oryza sp., var.Tebonnet, RICE); experiment: Pre-emerge greenhouse test, crop damage rating; details: 14 days after application, rating scale 0-100
In short: as §2

[14] = tested on: field corn (Zea mays L., var. Dekalb 535, CORN); experiment: Pre-emerge greenhouse test, crop damage rating; details: 14 days after application, rating scale 0-100
In short: as §2

[15] = tested on: soybean (Glycine max L., var. Pella 86, SOY); experiment: Post-emerge greenhouse test, crop damage rating; details: 14 days after application
In short: as §1

[16] = tested on: green foxtail (Setaria viridis, SETVI); experiment: Pre-emerge greenhouse herbicide test, phytotoxicity rating; details: 14 days after application, rating scale 0-100
In short: as §2

[17] = tested on: barnyardgrass (Echinochloa crusgalli, ECHCG); experiment: as above; details: 14 days after application, rating scale 0-100
In short: as §2

[18] = tested on: velvetleaf (Abutilon theophrasti, ABUTH); experiment: as above; details: 14 days after application, rating scale 0-100
In short: as §2

[19] = tested on: ivyleaf morningglory (Ipomoea hederacea, IPOHE); experiment: as above; details: 14 days after application, rating scale 0-100
In short: as §2

[20] = tested on: sicklepod (Cassia obtusifolia, CASOB); experiment: as above; details: 14 days after application, rating scale 0-100
In short: as §2

[21] = tested on: Johnsongrass (Sorghum halepense, SORHA); experiment: as above; details: 14 days after application, rating scale 0-100
In short: as §2

[22] = tested on: redroot pigweed (Amaranthus retroflexus, AMARE); experiment: as above; details: 14 days after application, rating scale 0-100
In short: as §2

[23] = tested on: common ragweed (Ambrosia artemisiifolia L., AMBEL); experiment: as above; details: 14 days after application, rating scale 0-100
In short: as §2

[24] = tested on: lambsquarters (Chenopodium album, CHEAL); experiment: as above; details: 14 days after application, rating scale 0-100
In short: as §2

[25] = tested on: large crabgrass (Digitaria sanguinalis, DIGSA); experiment: as above; details: 14 days after application, rating scale 0-100
In short: as §2

Compound: Cn1nc(-c2cc(Oc3cccc(F)n3)c(Cl)cc2F)c(Cl)c1C(F)(F)F [Compound 1-5]
- AMBEL phytotoxicity rating (0-100) ([1]; 63 g al/ha): 30
- AMBEL phytotoxicity rating (0-100) ([1]; 500 g al/ha): 90
- SETVI phytotoxicity rating (0-100) ([2]; 63 g al/ha): 0
- SETVI phytotoxicity rating (0-100) ([2]; 500 g al/ha): 100
- ECHCG phytotoxicity rating (0-100) ([3]; 63 g al/ha): 30
- ECHCG phytotoxicity rating (0-100) ([3]; 500 g al/ha): 100
- ABUTH phytotoxicity rating (0-100) ([4]; 63 g al/ha): 30
- ABUTH phytotoxicity rating (0-100) ([4]; 500 g al/ha): 100
- IPOHE phytotoxicity rating (0-100) ([5]; 63 g al/ha): 95
- IPOHE phytotoxicity rating (0-100) ([5]; 500 g al/ha): 100
- SORHA phytotoxicity rating (0-100) ([6]; 63 g al/ha): 30
- SORHA phytotoxicity rating (0-100) ([6]; 500 g al/ha): 95
- AMARE phytotoxicity rating (0-100) ([7]; 63 g al/ha): 100
- AMARE phytotoxicity rating (0-100) ([7]; 500 g al/ha): 100
- CHEAL phytotoxicity rating (0-100) ([8]; 63 g al/ha): 95
- CHEAL phytotoxicity rating (0-100) ([8]; 500 g al/ha): 100
- DIGSA phytotoxicity rating (0-100) ([9]; 63 g al/ha): 50
- DIGSA phytotoxicity rating (0-100) ([9]; 500 g al/ha): 99
- RICE crop damage rating (0-100) ([10]; 63 g al/ha): 40
- RICE crop damage rating (0-100) ([10]; 500 g al/ha): 80
- CORN crop damage rating (0-100) ([11]; 63 g al/ha): 10
- CORN crop damage rating (0-100) ([11]; 500 g al/ha): 30
- crop damage rating SOY ([12]; 125 g ai/ha): 0
- crop damage rating SOY ([12]; 500 g ai/ha): 0
- crop damage rating RICE ([13]; 125 g ai/ha): 30
- crop damage rating RICE ([13]; 500 g ai/ha): 20
- crop damage rating CORN ([14]; 125 g ai/ha): 20
- crop damage rating CORN ([14]; 500 g ai/ha): 30
- SOY crop damage rating (0-100) ([15]; 63 g al/ha): 40
- SOY crop damage rating (0-100) ([15]; 500 g al/ha): 90
- phytotoxicity rating SETVI ([16]; 125 g ai/ha): 100
- phytotoxicity rating SETVI ([16]; 500 g ai/ha): 100
- phytotoxicity rating ECHCG ([17]; 125 g ai/ha): 50
- phytotoxicity rating ECHCG ([17]; 500 g ai/ha): 90
- phytotoxicity rating ABUTH ([18]; 125 g ai/ha): 70
- phytotoxicity rating ABUTH ([18]; 500 g ai/ha): 90
- phytotoxicity rating IPOHE ([19]; 125 g ai/ha): 30
- phytotoxicity rating IPOHE ([19]; 500 g ai/ha): 70
- phytotoxicity rating CASOB ([20]; 125 g ai/ha): 50
- phytotoxicity rating CASOB ([20]; 500 g ai/ha): 100
- phytotoxicity rating SORHA ([21]; 125 g ai/ha): 50
- phytotoxicity rating SORHA ([21]; 500 g ai/ha): 95
- phytotoxicity rating AMARE ([22]; 125 g ai/ha): 100
- phytotoxicity rating AMARE ([22]; 500 g ai/ha): 100
- phytotoxicity rating AMBEL ([23]; 125 g ai/ha): 50
- phytotoxicity rating AMBEL ([23]; 500 g ai/ha): 90
- phytotoxicity rating CHEAL ([24]; 125 g ai/ha): 100
- phytotoxicity rating CHEAL ([24]; 500 g ai/ha): 100
- phytotoxicity rating DIGSA ([25]; 125 g ai/ha): 100
- phytotoxicity rating DIGSA ([25]; 500 g ai/ha): 90

Compound: O=c1n(CCCF)nnn1-c1cc(Oc2ncccc2[N+](=O)[O-])c(Cl)cc1Cl [Compound 6-3]
- AMBEL phytotoxicity rating (0-100) ([1]; 63 g al/ha): 0
- AMBEL phytotoxicity rating (0-100) ([1]; 500 g al/ha): 0
- SETVI phytotoxicity rating (0-100) ([2]; 63 g al/ha): 0
- SETVI phytotoxicity rating (0-100) ([2]; 500 g al/ha): 30
- ECHCG phytotoxicity rating (0-100) ([3]; 63 g al/ha): 0
- ECHCG phytotoxicity rating (0-100) ([3]; 500 g al/ha): 20
- ABUTH phytotoxicity rating (0-100) ([4]; 63 g al/ha): 0
- ABUTH phytotoxicity rating (0-100) ([4]; 500 g al/ha): 20
- IPOHE phytotoxicity rating (0-100) ([5]; 63 g al/ha): 20
- IPOHE phytotoxicity rating (0-100) ([5]; 500 g al/ha): 70
- SORHA phytotoxicity rating (0-100) ([6]; 63 g al/ha): 0
- SORHA phytotoxicity rating (0-100) ([6]; 500 g al/ha): 30
- AMARE phytotoxicity rating (0-100) ([7]; 63 g al/ha): 20
- AMARE phytotoxicity rating (0-100) ([7]; 500 g al/ha): 80
- CHEAL phytotoxicity rating (0-100) ([8]; 63 g al/ha): 0
- CHEAL phytotoxicity rating (0-100) ([8]; 500 g al/ha): 80
- DIGSA phytotoxicity rating (0-100) ([9]; 63 g al/ha): 0
- DIGSA phytotoxicity rating (0-100) ([9]; 500 g al/ha): 0
- RICE crop damage rating (0-100) ([10]; 63 g al/ha): 0
- RICE crop damage rating (0-100) ([10]; 500 g al/ha): 40
- CORN crop damage rating (0-100) ([11]; 63 g al/ha): 0
- CORN crop damage rating (0-100) ([11]; 500 g al/ha): 0
- crop damage rating SOY ([12]; 125 g ai/ha): 0
- crop damage rating SOY ([12]; 500 g ai/ha): 0
- crop damage rating RICE ([13]; 125 g ai/ha): 20
- crop damage rating RICE ([13]; 500 g ai/ha): 20
- crop damage rating CORN ([14]; 125 g ai/ha): 30
- crop damage rating CORN ([14]; 500 g ai/ha): 10
- SOY crop damage rating (0-100) ([15]; 63 g al/ha): 0
- SOY crop damage rating (0-100) ([15]; 500 g al/ha): 30
- phytotoxicity rating SETVI ([16]; 125 g ai/ha): 99
- phytotoxicity rating SETVI ([16]; 500 g ai/ha): 70
- phytotoxicity rating ECHCG ([17]; 125 g ai/ha): 60
- phytotoxicity rating ECHCG ([17]; 500 g ai/ha): 0
- phytotoxicity rating ABUTH ([18]; 125 g ai/ha): 40
- phytotoxicity rating ABUTH ([18]; 500 g ai/ha): 30
- phytotoxicity rating IPOHE ([19]; 125 g ai/ha): 0
- phytotoxicity rating IPOHE ([19]; 500 g ai/ha): 20
- phytotoxicity rating CASOB ([20]; 125 g ai/ha): 30
- phytotoxicity rating CASOB ([20]; 500 g ai/ha): 40
- phytotoxicity rating SORHA ([21]; 125 g ai/ha): 30
- phytotoxicity rating SORHA ([21]; 500 g ai/ha): 0
- phytotoxicity rating AMARE ([22]; 125 g ai/ha): 0
- phytotoxicity rating AMARE ([22]; 500 g ai/ha): 90
- phytotoxicity rating AMBEL ([23]; 125 g ai/ha): 100
- phytotoxicity rating AMBEL ([23]; 500 g ai/ha): 40
- phytotoxicity rating CHEAL ([24]; 125 g ai/ha): 0
- phytotoxicity rating CHEAL ([24]; 500 g ai/ha): 90
- phytotoxicity rating DIGSA ([25]; 125 g ai/ha): 10
- phytotoxicity rating DIGSA ([25]; 500 g ai/ha): 50

Source: patent US6479435B1, “Diaryl ethers and processes for their preparation and herbicidal and desiccant compositions containing them” (ISK Americas Incorporated, priority 1997, dated 2002)
